pIC50: −log10 of the molar value. Where a name gives a salt, the structure may show the parent alone.
Each compound was assayed against SHP2 (Homo sapiens (Human), UniProt Q06124) (assay: SHP2 allosteric inhibition assay (DiFMUP prompt fluorescence)). Settings: Table 1; 0.25 nM SHP2 with 0.5 μM peptide IRS1_pY1172(dPEG8)pY1222, substrate DiFMUP 100 μM.
Type: biochemical

Structure (SMILES) | pIC50
O=S(=O)(F)Oc1cnc2c(N3CCCc4ncccc43)n[nH]c2n1 [Compound 8A] | ≤ 5.00

Same assay, conditions: Table 2; 0.25 nM SHP2 with 0.5 μM peptide IRS1_pY1172(dPEG8)pY1222, substrate DiFMUP 100 μM

Structure (SMILES) | pIC50
CN(CCN)C(=O)c1cnc2c(-c3cccc(Cl)c3F)n[nH]c2n1 [Compound 7B] | ≤ 5.00
OC1(c2cnc3c(-c4cccc(Cl)c4F)n[nH]c3n2)CCNCC1 [Compound 8B] | > 6.00
NCc1ccn(Cc2cnc3c(-c4cccc(Cl)c4F)n[nH]c3n2)n1 [Compound 9B, (1-((3-(3-chloro-2-fluorophenyl)-1H-pyrazolo[3,4-b]pyrazin-6-yl)methyl)-1H-pyrazol-3-yl)methanamine] | ≤ 5.00
NCc1ccccc1-c1cnc2c(N3CCCc4ncccc43)n[nH]c2n1 [Compound 10B, (2-(3-(3,4-dihydro-1,5-naphthyridin-1(2H)-yl)-1H-pyrazolo[3,4-b]pyrazin-6-yl)phenyl)methanamine] | ≤ 5.00
CC(C)(CN)c1cnc2c(-c3cccc(Cl)c3F)n[nH]c2n1 [Compound 11B, 2-[3-(3-chloro-2-fluorophenyl)-1H-pyrazolo[3,4-b]pyrazin-6-yl]-2-methylpropan-1-amine] | ≤ 5.00
CC(C)(CN)c1cnc2c(N3CCCc4ncccc43)n[nH]c2n1 [Compound 12B, 2-(3-(3,4-dihydro-1,5-naphthyridin-1(2H)-yl)-1H-pyrazolo[3,4-b]pyrazin-6-yl)-2-methylpropan-1-amine] | ≤ 5.00
NCC1CCCCN1C(=O)c1cnc2c(-c3cccc(Cl)c3F)n[nH]c2n1 (stereo not drawn) [Compound 13B] | ≤ 5.00

Results, then the compound that gave them:

pIC50 | Structure (SMILES)
> 6.00 | C[C@H]1CCN(c2n[nH]c3nc([C@H]4CC[C@@H](CN)CC4)cnc23)c2ccc(C#N)cc21 [Compound 18B, (4S)-4-methyl-1-{6-[(1r,4r)-4-(aminomethyl)cyclohexyl]-1H-pyrazolo[3,4-b]pyrazin-3-yl}-1,2,3,4-tetrahydroquinoline-6-carbonitrile]
5.00 to 6.00 | C[C@H]1CCN(c2n[nH]c3nc([C@H]4CC[C@H](CN)CC4)cnc23)c2ccc(C#N)cc21 [Compound 19B, (4S)-4-methyl-1-{6-[(1s,4s)-4-(aminomethyl)cyclohexyl]-1H-pyrazolo[3,4-b]pyrazin-3-yl}-1,2,3,4-tetrahydroquinoline-6-carbonitrile]

Same assay, conditions: Table 3; 0.25 nM SHP2 with 0.5 μM peptide IRS1_pY1172(dPEG8)pY1222, substrate DiFMUP 100 μM

Structure (SMILES) | pIC50
CC1(CN)CCN(c2nc3[nH]nc(N4CCCc5ncccc54)c3nc2C#N)CC1 [Compound 7C, 6-[4-(aminomethyl)-4-methylpiperidin-1-yl]-3-(1,2,3,4-tetrahydro-1,5-naphthyridin-1-yl)-1H-pyrazolo[3,4-b]pyrazine-5-carbonitrile] | > 6.00
CC1(CN)CCN(c2nc3[nH]nc(N4CCCc5ncccc54)c3nc2C(N)=O)CC1 [Compound 8C, 6-[4-(aminomethyl)-4-methylpiperidin-1-yl]-3-(1,2,3,4-tetrahydro-1,5-naphthyridin-1-yl)-1H-pyrazolo[3,4-b]pyrazine-5-carboxamide] | > 6.00
COC(=O)c1nc2c(N3CCCc4ncccc43)n[nH]c2nc1N1CCC(C)(CN)CC1 [Compound 9C, methyl 6-[4-(aminomethyl)-4-methylpiperidin-1-yl]-3-(1,2,3,4-tetrahydro-1,5-naphthyridin-1-yl)-1H-pyrazolo[3,4-b]pyrazine-5-carboxylate] | > 6.00
COc1nc2c(N3CCCc4ncccc43)n[nH]c2nc1N1CCC2(CC1)CO[C@@H](C)[C@H]2N [Compound 10C, (3S,4S)-8-[5-methoxy-3-(1,2,3,4-tetrahydro-1,5-naphthyridin-1-yl)-1H-pyrazolo[3,4-b]pyrazin-6-yl]-3-methyl-2-oxa-8-azaspiro[4.5]decan-4-amine dihydrochloride] | > 6.00
CC1(CN)CCN(c2nc3[nH]nc(N4CCCc5ncccc54)c3nc2CO)CC1 [Compound 11C, (6-(4-(aminomethyl)-4-methylpiperidin-1-yl)-3-(3,4-dihydro-1,5-naphthyridin-1(2H)-yl)-1H-pyrazolo[3,4-b]pyrazin-5-yl)methanol] | > 6.00
C[C@@H]1OCC2(CCN(c3nc4[nH]nc(N5CCCc6ncccc65)c4nc3C#N)CC2)[C@@H]1N [Compound 12C, 6-[(3S,4S)-4-amino-3-methyl-2-oxa-8-azaspiro[4.5]decan-8-yl]-3-(1,2,3,4-tetrahydro-1,5-naphthyridin-1-yl)-1H-pyrazolo[3,4-b]pyrazine-5-carbonitrile] | > 6.00
Cc1nc2c(N3CCCc4ncccc43)n[nH]c2nc1N1CCC2(CC1)CO[C@@H](C)[C@H]2N [Compound 13C, (3S,4S)-8-(3-(3,4-dihydro-1,5-naphthyridin-1(2H)-yl)-5-methyl-1H-pyrazolo[3,4-b]pyrazin-6-yl)-3-methyl-2-oxa-8-azaspiro[4.5]decan-4-amine] | > 6.00

The next lines start with the values.

pIC50 | Structure (SMILES)
> 6.00 | C[C@@H]1OCC2(CCN(c3nc4[nH]nc(N5CCCc6ncccc65)c4nc3CO)CC2)[C@@H]1N [Compound 14C, (6-((3S,4S)-4-amino-3-methyl-2-oxa-8-azaspiro[4.5]decan-8-yl)-3-(3,4-dihydro-1,5-naphthyridin-1(2H)-yl)-1H-pyrazolo[3,4-b]pyrazin-5-yl)methanol]
> 6.00 | COCc1nc2c(N3CCCc4ncccc43)n[nH]c2nc1N1CCC(C)(CN)CC1 [Compound 15C]
> 6.00 | CC1(CN)CCN(c2nc3[nH]nc(N4CCCc5c4cccc5S(C)(=O)=O)c3nc2CO)CC1 [Compound 16C]
> 6.00 | C[C@@H]1OCC2(CCN(c3nc4[nH]nc(N5CC[C@H](C)c6cc(C#N)ccc65)c4nc3CO)CC2)[C@@H]1N [Compound 17C]
> 6.00 | C[C@@H]1OCC2(CCN(c3nc4[nH]nc(-c5cccc(Cl)c5F)c4nc3CO)CC2)[C@@H]1N [Compound 19C]
> 6.00 | C[C@@H]1OCC2(CCN(c3nc4[nH]nc(N5CCCc6nc(-c7ccn[nH]7)ccc65)c4nc3CO)CC2)[C@@H]1N [Compound 20C, (3-(6-(1H-pyrazol-5-yl)-3,4-dihydro-1,5-naphthyridin-1(2H)-yl)-6-((3S,4S)-4-amino-3-methyl-2-oxa-8-azaspiro[4.5]decan-8-yl)-1H-pyrazolo[3,4-b]pyrazin-5-yl)methanol]
> 6.00 | COC1CC(N2CCN(c3n[nH]c4nc(N5CCC6(CC5)CO[C@@H](C)[C@H]6N)c(CO)nc34)c3ccc(C#N)cc32)C1 (stereo partly drawn) [Compound 21C]
> 6.00 | C[C@@H]1OCC2(CCN(c3nc4[nH]nc(-c5cccc6ncccc56)c4nc3CO)CC2)[C@@H]1N [Compound 22C, (6-((3S,4S)-4-amino-3-methyl-2-oxa-8-azaspiro[4.5]decan-8-yl)-3-(quinolin-5-yl)-1H-pyrazolo[3,4-b]pyrazin-5-yl)methanol]
> 6.00 | CC(=O)N1CCN(c2n[nH]c3nc(N4CCC5(CC4)CO[C@@H](C)[C@H]5N)c(CO)nc23)c2ccccc21 [Compound 23C]
> 6.00 | C[C@@H]1OCC2(CCN(c3nc4[nH]nc(-c5ccc6occc6c5)c4nc3CO)CC2)[C@@H]1N [Compound 24C]
